Experimental data reported in ChEMBL document CHEMBL4049391, “Vicinal diaryl azole-based urea derivatives as potential cholesterol lowering agents acting through inhibition of SOAT enzymes” (Eur J Med Chem, 2017).
Activity calls are given as the source filed them. The calls are words filed in the database; no cut-off is given here.

Columns and labels:
[1] = species on record: Rattus norvegicus; experiment: Inhibition of rat microsomal SOAT assessed as reduction in cholesteryl oleate formation from oleoyl co-enzyme A at 10 uM pretreated for 15 mins followed by oleoyl co-enzyme A addition measured after 10 mins by HPTLC method relative to control
[2] = Inhibition of rat microsomal SOAT assessed as reduction in cholesteryl oleate formation from oleoyl co-enzyme A pretreated for 15 mins followed by oleoyl co-enzyme A addition after 10 mins by HPTLC method
[3] = system: Rattus norvegicus; experiment: Anti-hypercholesterolemic activity in poloxamer-407-induced Wistar rat lipoprotein lipase inhibition model assessed as fold change in triglyceride level at 20 mg/kg administered as single dose via oral gavage pretreated for 4 hrs followed by poloxamer-407 induction measured over 24 hrs (reference value: 80); assay type: functional
[4] = system: Rattus norvegicus; experiment: Anti-atherosclerosis activity in high cholesterol diet-induced Wistar rat atherogenesis model assessed as effect on serum total cholesterol level at 30 mg/kg, po administered once daily measured after 4 weeks; assay type: functional
[5] = system: Rattus norvegicus; experiment: Anti-atherosclerosis activity in po dosed high cholesterol diet-induced Wistar rat atherogenesis model assessed as increase in HDL-cholesterol level administered once daily measured after 4 weeks; assay type: functional, organism-based
[6] = system: Rattus norvegicus; experiment: Anti-atherosclerosis activity in high cholesterol diet-induced Wistar rat atherogenesis model assessed as reduction in LDL-cholesterol level at 10 mg/kg, po administered once daily measured after 4 weeks; assay type: functional, organism-based
[7] = system: Rattus norvegicus; experiment: Anti-atherosclerosis activity in high cholesterol diet-induced Wistar rat atherogenesis model assessed as reduction in VLDL-cholesterol level at 10 to 30 mg/kg, po administered once daily measured after 4 weeks; assay type: functional, organism-based
[8] = system: Rattus norvegicus; experiment: Anti-atherosclerosis activity in high cholesterol diet-induced Wistar rat atherogenesis model assessed as reduction in triglyceride level at 10 to 30 mg/kg, po administered once daily measured after 4 weeks; assay type: functional, organism-based
[9] = system: Rattus norvegicus; experiment: Anti-atherosclerosis activity in high cholesterol diet-induced Wistar rat atherogenesis model assessed as atherogenic index at 10 mg/kg, po administered once daily measured after 4 weeks (reference value: 19.59 +/- 5.8); assay type: functional
[10] = system: Rattus norvegicus; experiment: Toxicity in Wistar rat assessed as effect on body weight at 10 mg/kg, po administered once daily measured after 4 weeks (reference value: 290.3 +/- 8.1 g); assay type: organism-based; conditions: in vivo, 672 h
[11] = system: Rattus norvegicus; experiment: Toxicity in Wistar rat assessed as effect on body weight at 30 mg/kg, po administered once daily measured after 4 weeks (reference value: 290.3 +/- 8.1 g); assay type: organism-based; conditions: in vivo, 672 h
[12] = system: Rattus norvegicus; experiment: (§1) Anti-atherosclerosis activity in high cholesterol diet-induced Wistar rat atherogenesis model assessed as lipid accumulation lesion area in thoracic aorta at 30 mg/kg, po administered once daily measured after 4 weeks by Sudan red 4 staining based photographic method relative to control; assay type: functional
[13] = system: Rattus norvegicus; experiment: as §1, with “10” for “30”, “(reference value: 22.35 +/- 7.9%)” for “relative to control”; assay type: functional
[14] = system: Rattus norvegicus; experiment: Anti-atherosclerosis activity in high cholesterol diet-induced Wistar rat atherogenesis model assessed as reduction in LDL-cholesterol level at 30 mg/kg, po administered once daily measured after 4 weeks; assay type: functional, organism-based
[15] = system: Rattus norvegicus; experiment: Anti-atherosclerosis activity in high cholesterol diet-induced Wistar rat atherogenesis model assessed as reduction in fatty streak formation in thoracic aorta at 30 mg/kg, po administered once daily measured after 4 weeks by Sudan red 4 staining based photographic method; assay type: functional, organism-based
[16] = system: Rattus norvegicus; experiment: Anti-atherosclerosis activity in high cholesterol diet-induced Wistar rat atherogenesis model assessed as reduction in lumenal lipid plaque formation in aortic roots at 10 to 30 mg/kg, po administered once daily measured after 4 weeks by Sudan red 4 staining based photographic method; assay type: functional, organism-based
[17] = system: Rattus norvegicus; experiment: Toxicity in Wistar rat assessed as adrenal toxicity at 10 to 30 mg/kg, po administered once daily measured after 4 weeks; assay type: organism-based; conditions: in vivo, 672 h
[18] = system: Rattus norvegicus; experiment: Acute toxicity in Wistar rat assessed as change in body weight at 2000 mg/kg, po administered as single dose measured at 6 hrs post dose; assay type: organism-based; conditions: in vivo
[19] = system: Rattus norvegicus; experiment: Acute toxicity in Wistar rat assessed as effect on water intake at 2000 mg/kg, po administered as single dose measured at 6 hrs post dose; assay type: organism-based; conditions: in vivo
[20] = system: Rattus norvegicus; experiment: Acute toxicity in Wistar rat assessed as effect on fur color at 2000 mg/kg, po administered as single dose measured up to 14 days; assay type: organism-based; conditions: in vivo, 336 h
[21] = system: Rattus norvegicus; experiment: Acute toxicity in Wistar rat assessed as effect on locomotion at 2000 mg/kg, po administered as single dose measured up to 14 days; assay type: organism-based; conditions: in vivo, 336 h
[22] = system: Rattus norvegicus; experiment: Acute toxicity in Wistar rat assessed as effect on breathing at 2000 mg/kg, po administered as single dose measured up to 14 days; assay type: organism-based; conditions: in vivo, 336 h
[23] = system: Rattus norvegicus; experiment: Acute toxicity in Wistar rat assessed as effect on viscera at 2000 mg/kg, po administered as single dose measured up to 14 days; assay type: organism-based; conditions: in vivo, 336 h
[24] = system: Rattus norvegicus; experiment: Acute toxicity in Wistar rat assessed as macroscopic lesions in heart at 2000 mg/kg, po administered as single dose measured up to 14 days; assay type: organism-based; conditions: in vivo, 336 h
[25] = system: Rattus norvegicus; experiment: Acute toxicity in Wistar rat assessed as macroscopic lesions in liver at 2000 mg/kg, po administered as single dose measured up to 14 days; assay type: organism-based; conditions: in vivo, 336 h
[26] = system: Rattus norvegicus; experiment: Acute toxicity in Wistar rat assessed as change in body weight at 60 mg/kg, po administered as repeated dosing for 28 days; assay type: organism-based; conditions: in vivo, 672 h
[27] = system: Rattus norvegicus; experiment: Acute toxicity in Wistar rat assessed as macroscopic lesions in adrenal gland at 2000 mg/kg, po administered as single dose measured up to 14 days; assay type: organism-based; conditions: in vivo, 336 h
[28] = system: Rattus norvegicus; experiment: Acute toxicity in Wistar rat assessed as effect on mucus of lungs at 2000 mg/kg, po administered as single dose measured up to 14 days; assay type: organism-based; conditions: in vivo, 336 h
[29] = system: Rattus norvegicus; experiment: Acute toxicity in Wistar rat assessed as macroscopic lesions in kidney at 2000 mg/kg, po administered as single dose measured up to 14 days; assay type: organism-based; conditions: in vivo, 336 h
[30] = system: Rattus norvegicus; experiment: Acute toxicity in Wistar rat assessed as macroscopic lesions in spleen at 2000 mg/kg, po administered as single dose measured up to 14 days; assay type: organism-based; conditions: in vivo, 336 h
[31] = system: Rattus norvegicus; experiment: Acute toxicity in Wistar rat assessed as changes in adrenal gland shape at 2000 mg/kg, po administered as single dose measured up to 14 days; assay type: organism-based; conditions: in vivo, 336 h
[32] = system: Rattus norvegicus; experiment: Acute toxicity in Wistar rat assessed as changes in adrenal gland size at 2000 mg/kg, po administered as single dose measured up to 14 days; assay type: organism-based; conditions: in vivo, 336 h
[33] = system: Rattus norvegicus; experiment: Acute toxicity in Wistar rat assessed as shrinkage of adrenal gland at 2000 mg/kg, po administered as single dose measured up to 14 days; assay type: organism-based; conditions: in vivo, 336 h
[34] = system: Rattus norvegicus; experiment: Acute toxicity in Wistar rat assessed as effect on food intake at 60 mg/kg, po administered as repeated dosing for 28 days; assay type: organism-based; conditions: in vivo, 672 h
[35] = system: Rattus norvegicus; experiment: Acute toxicity in Wistar rat assessed as cutaneous xanthomatosis at 60 mg/kg, po administered as repeated dosing for 42 days; assay type: organism-based; conditions: in vivo, 1008 h
[36] = system: Rattus norvegicus; experiment: Acute toxicity in Wistar rat assessed as effect on urinary excretion at 60 mg/kg, po administered as repeated dosing for 28 days; assay type: organism-based; conditions: in vivo, 672 h
[37] = system: Rattus norvegicus; experiment: Acute toxicity in Wistar rat assessed as macroscopic lesions in lung at 2000 mg/kg, po administered as single dose measured up to 14 days; assay type: organism-based; conditions: in vivo, 336 h
[38] = system: Rattus norvegicus; experiment: Acute toxicity in Wistar rat assessed as macroscopic lesions in brain at 2000 mg/kg, po administered as single dose measured up to 14 days; assay type: organism-based; conditions: in vivo, 336 h

CCCCNC(=O)Nc1ccc(-c2sc(C)nc2-c2ccc(C)cc2)cc1
inhibition [1]: 64.9%
IC50 [2]: 2430 nM
pIC50 [2]: 5.614
fold change (FC) [3]: 20
Activity [4]: 138 mg/dL
Activity [5]: Dose-dependent effect
Activity [6]: inactive
Activity [7]: inactive
Activity [8]: inactive
Activity_index [9]: 7.55
Activity [10]: 294 g
Activity [11]: 299 g
fold change (FC) [12]: 3
Activity [13]: 16.21%
Activity [14]: Active
Activity [15]: Active
Activity [16]: Active
Activity [17]: Non-Toxic
Activity [18]: Non-Toxic
Activity [19]: Non-Toxic
Activity [20]: Non-Toxic
Activity [21]: Non-Toxic
Activity [22]: Non-Toxic
Activity [23]: Non-Toxic
Activity [24]: Non-Toxic
Activity [25]: Non-Toxic
Activity [26]: Non-Toxic
Activity [27]: Non-Toxic
Activity [28]: Non-Toxic
Activity [29]: Non-Toxic
Activity [30]: Non-Toxic
Activity [31]: Non-Toxic
Activity [32]: Non-Toxic
Activity [33]: Non-Toxic
Activity [34]: Non-Toxic
Activity [35]: Non-Toxic
Activity [36]: Non-Toxic
Activity [37]: Non-Toxic
Activity [38]: Non-Toxic
